Reference: PMC1500811, “Neofunctionalization in Vertebrates: The Example of Retinoic Acid Receptors” (PLoS Genetics, 2006)
Blank lines part the entries; values can stand above or below the molecule they belong to.

Key:
PmRAR [1] = biological target: T1, PmRAR (Polyandrocarpa misakiensis, UniProt K7ZRU3); test: limited trypsin proteolysis of in vitro-translated receptor; assay type: binding; design: gene Pm-RAR; LBD fused to Gal4 residues 1-147; in vitro translated for proteolysis; conditions: ligand 10^-4 to 10^-5 M, room temperature
T1 sequence (K7ZRU3 208-503 limits assumed): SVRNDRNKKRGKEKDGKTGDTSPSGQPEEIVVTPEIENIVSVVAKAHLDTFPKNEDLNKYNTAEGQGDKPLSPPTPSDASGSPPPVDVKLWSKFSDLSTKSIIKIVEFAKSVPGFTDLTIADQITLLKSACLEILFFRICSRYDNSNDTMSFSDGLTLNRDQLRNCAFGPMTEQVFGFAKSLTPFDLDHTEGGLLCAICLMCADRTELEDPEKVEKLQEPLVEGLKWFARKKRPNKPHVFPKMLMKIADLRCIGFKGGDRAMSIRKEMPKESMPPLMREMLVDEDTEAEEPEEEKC

AmphiRAR [2] = biological target: T2, AmphiRAR (Branchiostoma floridae, UniProt Q8MX80); test: as above; assay type: binding; design: LBD from Ser154 fused to Gal4 residues 1-147; in vitro translated for proteolysis; conditions: ligand 10^-4 to 10^-5 M, room temperature
xRARβ = system: T3, xRARβ; test: Gal4-RAR(LBD) luciferase transactivation in Cos-1 cells; assay type: cell-based, Xenopus laevis; conditions: agonist; one collective range given for all chordate RARs
T3 construct: gene rarb; LBD fused to Gal4 residues 1-147; in vitro translated for proteolysis

AncRAR = system: T4, AncRAR; test: as above; assay type: cell-based, synthetic construct; conditions: agonist; one collective range given for all chordate RARs
T4 construct: maximum-likelihood reconstructed LBD fused to Gal4 residues 1-147
Excerpt: Gal4-RAR(LBD) luciferase transactivation in Cos-1 cells on AncRAR | all the chordate RARs, including the reconstructed AncRAR, are able to transactivate in a dose-dependent manner

xRARα = biological target: T5, xRARα (Xenopus laevis, UniProt P51126); test: as above; assay type: cell-based; conditions: agonist; one collective range given for all chordate RARs
T5 construct: gene rara; LBD fused to Gal4 residues 1-147; in vitro translated for proteolysis
T5 sequence (P51126 155-458 limits assumed): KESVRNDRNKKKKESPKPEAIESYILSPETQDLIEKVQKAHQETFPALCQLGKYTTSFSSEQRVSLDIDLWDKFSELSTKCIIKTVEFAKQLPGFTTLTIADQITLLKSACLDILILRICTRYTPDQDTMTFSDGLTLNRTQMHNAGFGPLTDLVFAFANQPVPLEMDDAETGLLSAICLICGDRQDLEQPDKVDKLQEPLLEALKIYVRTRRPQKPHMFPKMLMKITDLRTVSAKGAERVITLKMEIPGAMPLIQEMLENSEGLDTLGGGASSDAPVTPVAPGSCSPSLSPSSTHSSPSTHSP

zfRARγ = system: T6, zfRARγ; test: as above; assay type: cell-based, Danio rerio; conditions: agonist; one collective range given for all chordate RARs
T6 construct: gene rarga; LBD fused to Gal4 residues 1-147; in vitro translated for proteolysis

xRARγ = biological target: T7, xRARγ (Xenopus laevis, UniProt P28699); test: as above; assay type: cell-based; conditions: agonist; one collective range given for all chordate RARs
T7 construct: gene rarg; LBD fused to Gal4 residues 1-147; in vitro translated for proteolysis
T7 sequence (P28699 166-476 limits assumed): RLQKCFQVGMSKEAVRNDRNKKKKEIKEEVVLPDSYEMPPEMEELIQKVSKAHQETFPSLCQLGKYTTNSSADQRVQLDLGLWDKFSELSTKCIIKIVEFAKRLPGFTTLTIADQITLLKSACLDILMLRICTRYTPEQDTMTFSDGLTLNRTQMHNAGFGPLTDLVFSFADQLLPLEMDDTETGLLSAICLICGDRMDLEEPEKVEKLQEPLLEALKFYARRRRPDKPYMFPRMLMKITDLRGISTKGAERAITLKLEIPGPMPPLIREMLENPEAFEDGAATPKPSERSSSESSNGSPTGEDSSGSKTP

zfRARα = system: T8, zfRARα; test: as above; assay type: cell-based, Danio rerio; conditions: agonist; one collective range given for all chordate RARs
T8 construct: gene raraa; LBD fused to Gal4 residues 1-147; in vitro translated for proteolysis

AmphiRAR [3] = biological target: T2, AmphiRAR; test: as above; assay type: cell-based; design: LBD from Ser154 fused to Gal4 residues 1-147; conditions: agonist; one collective range given for all chordate RARs
PmRAR [4] = biological target: T1, PmRAR; test: as above; assay type: cell-based; design: gene Pm-RAR; LBD fused to Gal4 residues 1-147; conditions: agonist; one collective range given for all chordate RARs

T2 sequence (Q8MX80 entry or part of it): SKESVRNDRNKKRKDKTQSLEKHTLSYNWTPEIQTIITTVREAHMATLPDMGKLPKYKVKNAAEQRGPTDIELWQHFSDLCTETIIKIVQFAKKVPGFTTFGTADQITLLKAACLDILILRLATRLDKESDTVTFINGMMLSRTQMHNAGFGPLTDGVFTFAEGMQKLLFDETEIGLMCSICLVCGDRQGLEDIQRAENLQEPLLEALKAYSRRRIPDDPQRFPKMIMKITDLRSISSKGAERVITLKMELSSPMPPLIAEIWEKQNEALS

SMILES: CC1(C)CC=C(c2ccccc2)c2cc(/C=C/c3ccc(C(=O)O)cc3Cl)ccc21 [BMS641]
limited trypsin proteolysis of in vitro-translated receptor (PmRAR [1]): both PmRAR and AncRAR are able to bind weakly the β-specific retinoid (BMS641)

SMILES: CC1(C)C(=O)C(C)(C)c2cc(C(=O)Nc3ccc(C(=O)O)cc3)ccc21 [BMS753]
limited trypsin proteolysis of in vitro-translated receptor (AmphiRAR [2]): It also binds the α-specific compound (BMS753) (Figure 4F)

EC50 (xRARβ): ~ 10^−9 to 10^−8 M
EC50 (AncRAR): ~ 10^−9 to 10^−8 M
EC50 (xRARα): ~ 10^−9 to 10^−8 M
EC50 (zfRARγ): ~ 10^−9 to 10^−8 M
EC50 (xRARγ): ~ 10^−9 to 10^−8 M
EC50 (zfRARα): ~ 10^−9 to 10^−8 M
EC50 (AmphiRAR [3]): ~ 10^−9 to 10^−8 M
EC50 (PmRAR [4]): ~ 10^−9 to 10^−8 M
SMILES: CC1=C(/C=C/C(C)=C/C=C/C(C)=C/C(=O)O)C(C)(C)CCC1 [ATRA]
